Data: ChEMBL document CHEMBL5214991, “Discovery of 4-methyl-3-(pyridin-2-ylamino)benzamide derivatives as C-Abl inhibitors with potential neuroprotective effect” (Bioorg Med Chem, 2022)
The source made the active and inactive calls. The calls are words filed in the database; no cut-off is given here.

What was measured:
[1] = Cytotoxicity against human SH-SY5Y cells incubated for 48 hrs and measured by MTT assay; assay type: toxicity, cell-based
[2] = Cytotoxicity against rat H9c2 cells incubated for 48 hrs and measured by MTT assay; assay type: toxicity, cell-based
[3] = Cytotoxicity against HEK293 cells incubated for 48 hrs and measured by MTT assay; assay type: toxicity, cell-based; conditions: human
[4] = Cytotoxicity against human L02 cells incubated for 48 hrs and measured by MTT assay; assay type: toxicity, cell-based
SH-SY5Y [5] = experiment: Neuroprotective activity against MPP+-induced cell death in human SH-SY5Y cells assessed as increase in cell viability at 0.08 to 20 uM measured after 48 hrs by propidium iodide staining method; assay type: functional, cell-based; conditions: dose 0.08-20 µM
SH-SY5Y [6] = experiment: Neuroprotective activity against MPP+-induced cell death in human SH-SY5Y cells assessed as reduction in apoptosis at 1.25 to 5 uM measured after 48 hrs by propidium iodide staining method; assay type: functional, cell-based; conditions: dose 1.25-5 µM
[7] = AUC (0 to t) in male Sprague-Dawley rat at 5 mg/kg, iv measured by LC-MS/MS analysis; assay type: ADME, organism-based; parameters: dose 5 mg/kg, route iv; conditions: in vivo
[8] = AUC (0 to infinity) in male Sprague-Dawley rat at 5 mg/kg, iv measured by LC-MS/MS analysis; assay type: ADME, organism-based; parameters: time infinity, dose 5 mg/kg, route iv; conditions: in vivo
[9] = MRT (0 to t) in male Sprague-Dawley rat at 5 mg/kg, iv measured by LC-MS/MS analysis; assay type: ADME, organism-based; conditions: in vivo
[10] = MRT (0 to infinity) in male Sprague-Dawley rat at 5 mg/kg, iv measured by LC-MS/MS analysis; assay type: ADME, organism-based; conditions: in vivo
[11] = Half-life in male Sprague-Dawley rat at 5 mg/kg, iv measured by LC-MS/MS analysis; assay type: ADME, organism-based; conditions: in vivo
[12] = Clearance in male Sprague-Dawley rat at 5 mg/kg, iv measured by LC-MS/MS analysis; assay type: ADME, organism-based; conditions: in vivo
[13] = Volume of distribution at steady state in male Sprague-Dawley rat at 5 mg/kg, iv measured by LC-MS/MS analysis; assay type: ADME, organism-based; conditions: in vivo, read-out: Vdss
[14] = AUC (0 to t) in male Sprague-Dawley rat at 20 mg/kg, po measured by LC-MS/MS analysis; assay type: ADME, organism-based; parameters: dose 20 mg/kg, route po; conditions: in vivo
[15] = AUC (0 to infinity) in male Sprague-Dawley rat at 20 mg/kg, po measured by LC-MS/MS analysis; assay type: ADME, organism-based; parameters: time infinity, dose 20 mg/kg, route po; conditions: in vivo
[16] = MRT (0 to t) in male Sprague-Dawley rat at 20 mg/kg, po measured by LC-MS/MS analysis; assay type: ADME, organism-based; conditions: in vivo
[17] = MRT (0 to infinity) in male Sprague-Dawley rat at 20 mg/kg, po measured by LC-MS/MS analysis; assay type: ADME, organism-based; conditions: in vivo
[18] = Half-life in male Sprague-Dawley rat at 20 mg/kg, po measured by LC-MS/MS analysis; assay type: ADME, organism-based; conditions: in vivo
[19] = Tmax in male Sprague-Dawley rat at 20 mg/kg, po measured by LC-MS/MS analysis; assay type: ADME, organism-based; conditions: in vivo
[20] = Cmax in male Sprague-Dawley rat at 20 mg/kg, po measured by LC-MS/MS analysis; assay type: ADME, organism-based; parameters: dose 20 mg/kg, route po; conditions: in vivo
[21] = Oral bioavailability in male Sprague-Dawley rat at 20 mg/kg measured by LC-MS/MS analysis; assay type: ADME, organism-based; conditions: in vivo
[22] = Ratio of drug concentration in brain to plasma in male Sprague-Dawley rat at […], iv measured by LC-MS/MS analysis; assay type: ADME, organism-based; conditions: dose 5 mg/kg, read-out: BPR

Row | bioavailability [21] [%] | Structure (SMILES) | IC50 at 48 h [1] [µM] | IC50 at 48 h [2] [µM] | IC50 at 48 h [3] [µM] | IC50 at 48 h [4] [µM] | Activity (SH-SY5Y [5]) | further results
1 |  | Cc1ccc(C(=O)Nc2ccc(CN3CCN(C)CC3)c(C(F)(F)F)c2)cc1Nc1cc(-c2cncnc2)ccn1 | 12 | 16.7 | 17.1 | 30.1 | Active | 
2 |  | Cc1ccc(C(=O)Nc2cc(-c3cnn(C)c3)cc(C(F)(F)F)c2)cc1Nc1cc(-c2cncnc2)ccn1 | > 80 | > 80 | > 80 | > 80 | Active | 
3 | 47.6 | Cc1ccc(C(=O)Nc2cc(-c3cnn(C)c3)cc(C(F)(F)F)c2)cc1Nc1cc(-c2cccnc2)ccn1 | > 80 | > 80 | > 80 | > 80 | Active | Activity (SH-SY5Y [6]): Active; AUC(0-t) [7]: 5120 ng·h/mL; AUC(0-inf) [8]: 5200 ng·h/mL; MRT last [9]: 5.29 h; MRT inf [10]: 5.29 h; half-life [11]: 3.62 h; clearance [12]: 17.7 mL/min/kg; Vd [13]: 5.36 L/kg; AUC(0-t) [14]: 9890 ng·h/mL; AUC(0-inf) [15]: 9900 ng·h/mL; MRT last [16]: 5.9 h; MRT inf [17]: 5.93 h; half-life [18]: 3.54 h; Tmax [19]: 2.33 h; Cmax [20]: 1380 ng/mL; Kp [22]: 4
4 |  | Cc1ccc(C(=O)Nc2ccc(CN3CCN(C)CC3)c(C(F)(F)F)c2)cc1Nc1cc(-c2cccnc2)ccn1 | 19 | 9.12 | 14 | 37.4 | Active | 
5 | 27.1 | Cc1cn(-c2cc(NC(=O)c3ccc(C)c(Nc4nccc(-c5cccnc5)n4)c3)cc(C(F)(F)F)c2)cn1 [NILOTINIB] | 38.5 | 21.3 | 8.4 | 40.4 | Active | 
6 |  | Cc1cn(-c2cc(NC(=O)c3ccc(C)c(Nc4cc(-c5cccnc5)ccn4)c3)cc(C(F)(F)F)c2)cn1 | > 80 | > 80 | > 80 | > 80 | Active | 
